Test results published in patent US5180742A, “Quinone derivatives, their production and use” (Takeda Chemical Industries, Ltd., priority 1984, dated 1993).

How the values were obtained:
[1] = test system: Immunoglobulin-G1 mediated bronchoconstriction reaction; experiment: Action on immunoglobulin-G1 mediated bronchoconstriction reaction in guinea pigs; type: in vivo, Hartley guinea pigs; conditions: Cavia porcellus; 20 mg/kg oral, 1 hour before antigen
Experimental: Action on the Immunoglobulin-G1 Mediated Bronchoconstriction Reaction in Guinea Pigs
In accordance with the method of Orange and Moore (Orange, R. P. and Moore E. G. , J. Immunol., 116, 392-397, 1976), female and male Hartley guinea pigs weighing about 350 g were sensitized by intraperitoneal application of an emulsion (1 ml) composed of egg albumin (1 mg) and Freund's complete adjuvant (produced by Wako Pure-Chemical Industries, Ltd. of Japan). 3 Weeks after the sensitization, a serum antibody level in the sensitized guinea pigs was measured by means of the 3-hours passive cutaneous anaphylaxis (PCA) reaction in guinea pigs. […] The broncoconstriction reaction resulting from the antigen-antibody reaction was measured in accordance with the Konzett-Rossler method (Konzett, H. and Rossler, R., Naunyn-Schmiedeberg'ss Arch. exp. Path. pharmak., 195, 71-74, 1940). The guinea pigs were fixed on the dorsal position under anesthesia with a urethane (1.5 g/kg given intraperitonealy). An incision was made through the trachea, which was connected to an artificial respirator (manufactured by Harvard Co.) through an endotracheal tube, with a side tube of the endotracheal tube being attached to a brochoconstricting transducer (type 7020, manufactured by Ugobasile Co.). While an air volume per ventilation was adjusted to 5 to 7 ml and an air ventilation rate was controlled at 70 times/min., with a load pressure to the lung set at 10 cm H2 O, the overflown air volume was recorded on Rectigraphy-8S (manufactured by Sanei Sokki Inc. of Japan) through a transducer. After 1 mg/kg of gallamine triethiodide was given intravenously to the animals, 1 mg/kg of antigen, egg albumin dissolved in physiological saline, was applied intravenously to induce a brochoconstriction reaction. The bronchconstriction reaction was recorded for the period of time of 15 minutes. A drug was suspended in 5% gum arabic solution, and given orally 1 hour before the application of the antigen. Percent inhibition of the immunoglobuin G1 mediated bronchoconstriction reaction in guinea pigs are shown below in Table 3.

[2] = test system: LTD4-induced bronchoconstriction; experiment: Effect on LTD4-induced bronchoconstriction in guinea pigs; type: in vivo
Experimental: Effect on LTD4 -Induced Brochoconstriction in Guinea Pigs
Bronchoconstriction in guinea pigs was measured by the method of Konzett-Rossler[Naunyn-Schmiedeberg's Arch. exp. Path. Pharmak., 195, 71-74(1940)]. The animals were anesthetized with urethane (1.5 g/kg, intraperitoneally) and the trachea was cannulated. The animals were artificially ventilated by means of a respirator (Harvard apparatus rodent respirator) at a rate of 70 strokes/min and a constant volume of 5-7 ml. Inflation pressure was kept constantly at 10 cm H2 O. Changes in overflow of air from a side-arm of the cannula were recorded on Rectigraph-8S via a bronchospasm transducer for 15 min. LTD4 (10 μg/kg) was given into the […] through an indwelling cannula. Each specimen suspended in a 5% gum arabic solution was also given through the same cannula 1 or 24 hrs before the LTD4 administraction.

[3] = test system: PAF-induced bronchoconstriction; experiment: Effect on PAF-induced bronchoconstriction in guinea pigs; type: in vivo; conditions: one hour before PAF
Experimental: Platelet Activating Factor (PAF)-Induced Bronchoconstriction in Guinea Pigs
Experimental procedure in this experiment was the same as that in LTD4 -induced bronchoconstriction shown in Experimental example 7. PAF is an intraveneous dose of 1 μg/kg was used. Each specimen suspended in a 5% gum arabic solution was given orally one hour before the PAF administration.

[4] = test system: vascular permeability during early response of rat reversed passive Arthus pleurisy; experiment: Effects on vascular permeability in rat reversed passive Arthus pleurisy; type: in vivo
Experimental: (§1) Effects on Increased Vascular Permeability and Slow Reacting Substance of Anaphylaxis (SRS-A) Generation in Rat Reversed Passive Arthus Pleurisy
(§2) The rat reversed passive Arthus pleurisy was induced by the method of Yamamoto et al. Agents Actions, 5, 374-377 (1975)]. Rats were given 1 ml of saline containing 5 mg of egg albumin intravenously followed 0.2 ml of rabbit anti-agg albumin antiserum injected into the pleural cavity. Just after that, 0.5 ml of saline contained 1% Evans blue was administered intravenously to the rats. 30 Minutes later, the animals were killed by bleeding, and the pleural cavity was rinsed with 2 ml of saline. The concentrations of the dye in the pleural exudate and the peripheral blood were measured to calculate the volume of serum infiltrated into the pleural cavity. The vascular permeability (dye concentration in pleural cavity/dye concentration in peripheral blood) was expressed as μl serum/30 min. On the other hand, the amount of SRS-A generated in the pleural cavity was determined by the following procedures. 30 Minutes after induction of the pleurisy, the aminals were killed by bleeding and the pleural cavity was rinsed with 2 ml of saline. 9 Milliliter of cold absolute ethanol were immediately added to the rinsed solution. The mixture was allowed to stand at 4° C. for 30 min. After the mixture was centrifuged at 3000 r.p.m. for 10 min, the supernatant was concentrated by evaporation. The resulting residue was dissolved in 0.5 ml of saline. The amount of SRS-A generated was bioassayed using guinea pig ileum.

[5] = test system: SRS-A generation in rats pleural exudate; experiment: Effects on SRS-A generation in pleural exudate in rat reversed passive Arthus pleurisy; type: in vivo
Experimental: as §1, §2

[6] = test system: O2^- production in guinea pigs peritoneal macrophages; experiment: Inhibitory effect on O2- production in guinea pig peritoneal macrophages (chemiluminescence); type: cell-based, guinea pig (Hartley); conditions: Cavia porcellus, Peritoneal macrophage, 3 experiments; for inhibition at 100 µM: 10^-4 M; for inhibition at 10 µM: 10^-5 M; for inhibition at 1 µM: 10^-6 M
Experimental: Superoxide (O2^-) Production in Guinea Pig Peritoneal Macrophages
Male Hartley guinea pigs weighing 400-450 g were given intraperitoneally 5 ml of liquid paraffin. Four days later, 15 ml of Hank's buffer were administered into the peritoneal cavity for harvest of peritoneal cells. Macrophages in the peritoneal cells were purified by the method of Wood, P. R. [J. Immunol. Methods, 28, 117-124 (1979)].
The purity of macrophages was more than 95%. The reaction mixture contained 75 μl of macrophages (1×10^7 cells/ml), 5 μl of luminol, 10 μl of phorbol myristate acetate and 10 μl of drugs in a total volume of 100 μl. O2^- Product was assayed by chemiluminescence. Drugs were dissolved in a 10% dimethyl sulfoxide.

Compound | inhibition in vivo at 20 mg/kg [1] | % Inhibition of LTD4-induced bronchoconstriction ([2]; 0.313 mg/kg, 1 hr. before LTD4) | % Inhibition of LTD4-induced bronchoconstriction ([2]; 1.25 mg/kg, 1 hr. before LTD4) | % Inhibition of LTD4-induced bronchoconstriction ([2]; 5 mg/kg, 1 hr. before LTD4) | % Inhibition of LTD4-induced bronchoconstriction ([2]; 5 mg/kg, 24 hrs. before LTD4) | % Inhibition of PAF-induced bronchoconstriction ([3]; 0.313 mg/kg oral) | % Inhibition of PAF-induced bronchoconstriction ([3]; 1.25 mg/kg oral) | % Inhibition of PAF-induced bronchoconstriction ([3]; 5 mg/kg oral) | % Inhibition of vascular permeability ([4]; 0.1 mg/rat) | % Inhibition of vascular permeability ([4]; 1 mg/rat) | % Inhibition of SRS-A generation in pleural exudate ([5]; 0.1 mg/rat) | % Inhibition of SRS-A generation in pleural exudate ([5]; 1 mg/rat) | inhibition at 100 µM [6] | inhibition at 10 µM [6] | inhibition at 1 µM [6] | % Inhibition of PAF-induced bronchoconstriction ([3]; 0.08 mg/kg oral)
CC1=C(C)C(=O)C(C(CCCCCC(=O)O)c2ccccc2)=C(C)C1=O (stereo not drawn) [Compound No. 50, 7-(3,5,6-trimethyl-1,4-benzoquinon-2-yl)-7-phenylheptanoic acid] | 76% | 58% | 77% | 94% | 72% | 66% | 94% | 85% | 21% | 47% | 49% | 77% | 88 ± 2% | 38 ± 3% | 16 ± 6% | –
CC1=C(C)C(=O)C(C(CCCCCC(=O)O)c2ccc(C)cc2)=C(C)C1=O (stereo not drawn) [Compound No. 93] | 83% | 73% | 83% | 85% | 53% | 87% | 70% | – | 14% | 43% | -6% | 56% | 91 ± 3% | 33 ± 12% | 9 ± 6% | 58%
